Results reported in ChEMBL document CHEMBL5724914, “Linking interpersonal differences in gut microbiota composition and drug biotransformation activity” (2024).

Assays:
[1] = (§1) The drug is tested on Z-030 corresponding to mouse gut metagenome with ENA study accession number: PRJEB37062 and ENA sample accession number: ERS12561829 for biotransformation under anaerobic condition. The drug concentrations were measured over 9 timepoints collected between 0 and 24 hours of incubation by liquid-chromatography-coupled mass spectrometry (LC–MS); conditions: 2 µM
[2] = as §1, with “Z-025” for “Z-030”, “rabbit” for “mouse”, “ERS12561824” for “ERS12561829”; conditions: 2 µM
[3] = as §1, with “Z-020” for “Z-030”, “rabbit” for “mouse”, “ERS12561819” for “ERS12561829”; conditions: 2 µM
[4] = as §1, with “Z-005” for “Z-030”, “to” for “to mouse gut”, “ERS12561805” for “ERS12561829”; conditions: 2 µM
[5] = as §1, with “Z-004” for “Z-030”, “to” for “to mouse gut”, “ERS12561804” for “ERS12561829”; conditions: 2 µM
[6] = as §1, with “WLS-350” for “Z-030”, “human” for “mouse”, “ERS12561789” for “ERS12561829”; conditions: 2 µM
[7] = as §1, with “WLS-082” for “Z-030”, “human” for “mouse”, “ERS12561751” for “ERS12561829”; conditions: 2 µM
[8] = as §1, with “WLS-073” for “Z-030”, “human” for “mouse”, “ERS12561749” for “ERS12561829”; conditions: 2 µM
[9] = as §1, with “WLS-006” for “Z-030”, “human” for “mouse”, “ERS12561741” for “ERS12561829”; conditions: 2 µM
[10] = human gut metagenome, 24 h, 2 µM
[11] = human gut metagenome, 24 h, 2 µM; remark: listed apart in the source
[12] = human gut metagenome, 24 h, 2 µM; remark: listed apart in the source
[13] = human gut metagenome, 24 h, 2 µM; remark: listed apart in the source
[14] = human gut metagenome, 24 h, 2 µM; remark: listed apart in the source
[15] = human gut metagenome, 24 h, 2 µM; remark: listed apart in the source
[16] = human gut metagenome, 24 h, 2 µM; remark: listed apart in the source
[17] = human gut metagenome, 24 h, 2 µM; remark: listed apart in the source
[18] = human gut metagenome, 24 h, 2 µM; remark: listed apart in the source
[19] = human gut metagenome, 24 h, 2 µM; remark: listed apart in the source
[20] = human gut metagenome, 24 h, 2 µM; remark: listed apart in the source
Further: call rule not given here.

| Structure (SMILES) | Bacterial Biotransformation [1] | Bacterial Biotransformation [2] | Bacterial Biotransformation [3] | Bacterial Biotransformation [4] | Bacterial Biotransformation [5] | Bacterial Biotransformation [6] | Bacterial Biotransformation [7] | Bacterial Biotransformation [8] | Bacterial Biotransformation [9] | Bacterial Biotransformation [10] | Bacterial Biotransformation [11] | Bacterial Biotransformation [12] | Bacterial Biotransformation [13] | Bacterial Biotransformation [14] | Bacterial Biotransformation [15] | Bacterial Biotransformation [16] | Bacterial Biotransformation [17] | Bacterial Biotransformation [18] | Bacterial Biotransformation [19] | Bacterial Biotransformation [20] |
| --- | --- | --- | --- | --- | --- | --- | --- | --- | --- | --- | --- | --- | --- | --- | --- | --- | --- | --- | --- | --- |
| CC(Oc1c(Cl)cccc1Cl)C1=NCCN1 (stereo not given) [LOFEXIDINE] | Compound NOT metabolized | Compound NOT metabolized | Compound NOT metabolized | Compound NOT metabolized | Compound NOT metabolized | Compound NOT metabolized | Compound NOT metabolized | Compound NOT metabolized | Compound NOT metabolized | Compound NOT metabolized | Compound NOT metabolized | Compound NOT metabolized | Compound metabolized | Compound metabolized | Compound NOT metabolized | Compound metabolized | Compound NOT metabolized | Compound NOT metabolized | Compound NOT metabolized | Compound metabolized |
| CN(C)C(=O)C(CCN1CCC(O)(c2ccc(Cl)cc2)CC1)(c1ccccc1)c1ccccc1 [LOPERAMIDE] | Compound NOT metabolized | Compound metabolized | Compound metabolized | Compound metabolized | Compound metabolized | Compound metabolized | Compound metabolized | Compound NOT metabolized | Compound metabolized | Compound metabolized | Compound metabolized | Compound metabolized | Compound metabolized | Compound metabolized | Compound metabolized | Compound metabolized | Compound metabolized | Compound metabolized | Compound NOT metabolized | Compound metabolized |
| CCCCc1nc(Cl)c(CO)n1Cc1ccc(-c2ccccc2-c2nn[nH]n2)cc1 [LOSARTAN] | Compound NOT metabolized | Compound NOT metabolized | Compound NOT metabolized | Compound NOT metabolized | Compound NOT metabolized | Compound metabolized | Compound metabolized | Compound NOT metabolized | Compound metabolized | Compound metabolized | Compound metabolized | Compound metabolized | Compound NOT metabolized | Compound metabolized | Compound metabolized | Compound metabolized | Compound metabolized | Compound metabolized | Compound NOT metabolized | Compound metabolized |
| COC(=O)Nc1nc2ccc(C(=O)c3ccccc3)cc2[nH]1 [MEBENDAZOLE] | Compound NOT metabolized | Compound metabolized | Compound metabolized | Compound metabolized | Compound metabolized | Compound NOT metabolized | Compound metabolized | Compound metabolized | Compound metabolized | Compound metabolized | Compound NOT metabolized | Compound NOT metabolized | Compound metabolized | Compound metabolized | Compound metabolized | Compound metabolized | Compound metabolized | Compound metabolized | Compound NOT metabolized | Compound metabolized |
